Experimental data published in patent publication US8580769B2, “Treatment of obesity, metabolic syndrome, and diabetes with protein kinase C inhibitors” (The United States of America as represented by the …, priority 2011, dated 2013).

Experiments:
PKC-ζ = biological target: T1, PKC-ζ (Homo sapiens, UniProt Q05513); assay: PKC-ζ inhibition; assay type: biochemical
T1 construct: purchased Biovision, Mountain View, Calif
T1 sequence (Q05513 1-592): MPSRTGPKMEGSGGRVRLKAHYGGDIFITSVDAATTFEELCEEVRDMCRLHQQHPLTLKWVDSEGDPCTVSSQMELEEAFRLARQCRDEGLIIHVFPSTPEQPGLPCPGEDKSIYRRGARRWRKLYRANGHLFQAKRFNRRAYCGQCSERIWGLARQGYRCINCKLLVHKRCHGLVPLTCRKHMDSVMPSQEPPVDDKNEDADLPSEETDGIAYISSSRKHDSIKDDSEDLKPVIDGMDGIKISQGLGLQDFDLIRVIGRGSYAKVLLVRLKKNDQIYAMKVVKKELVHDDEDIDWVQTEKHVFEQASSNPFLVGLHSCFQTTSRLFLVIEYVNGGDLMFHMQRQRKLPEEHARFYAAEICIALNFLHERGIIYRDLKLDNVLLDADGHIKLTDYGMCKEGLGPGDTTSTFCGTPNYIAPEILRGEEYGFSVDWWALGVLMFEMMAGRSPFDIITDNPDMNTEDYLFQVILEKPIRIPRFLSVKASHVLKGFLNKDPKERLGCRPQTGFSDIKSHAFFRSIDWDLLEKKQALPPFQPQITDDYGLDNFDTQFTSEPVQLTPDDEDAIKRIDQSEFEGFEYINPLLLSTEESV
Method: For assays of recombinant PKC-ι and PKC-ζ (10 ng/assay; Biovision, Mountain View, Calif.), […] phosphatidylinositol-3,4,5-(PO4)3 (PIP3; Matreya, Pleasant Gap, Pa.) ±1 ng phosphoinositide-dependent kinase-1 (PDK1; Upstate Cell Signaling) was added to maximally activate and thus better define aPKC activity.

aPKC = assay: insulin-stimulated tissue aPKC activity in wild type mice after a single ICAPP injection; assay type: in vivo, mouse; settings: 1.5 mg/kg ICAPP s.c., 2-30 hours, insulin 1 U/kg
Method: aPKCι Assays: aPKC enzyme activity was measured as previously described (Standaert et al., J. Biol. Chem. 279:24929-24934, 2004; Sajan et al., J. Lipid Res. 50:1133-1145, 2009; Sajan et al., Diabetologia 52:1197-1207, 2009; Farese et al., J. Clin. Invest. 117:2289-2301, 2007). In brief, aPKCs were immunoprecipitated from cell lysates with a rabbit polyclonal antiserum (Santa Cruz Biotechnologies) that recognizes the C-termini of both PKC-ζ and PKC-λ/ι (whereas mouse (Bandyopadhyay et al., Endocrinol. 141:4120-4127, 2000) and human (present findings) muscle contains mainly PKC-λ and PKC-ι, respectively, and little PKC-ζ, mouse and human liver contains substantial amounts of both PKC-ζ and PKC-λ (Sajan et al., J. Lipid Res. 50:1133-1145, 2009; Matsumoto et al., J. Clin. Invest. 112:935-944, 2003; and present results). Immunoprecipitates were collected on Sepharose-AG beads (Santa Cruz Biotechnologies), and beads were suspended and incubated for 8 minutes at 30° C. in 100 buffer containing 50 mM Tris/HCl (pH, 7.5), 100 μM Na3VO4, 100 μM Na4P2O7, 1 mM NaF, 100 μM PMSF, 4 μg phosphatidylserine (Sigma-Aldrich), 50 μM [γ-^32P]ATP (NEN Life Science Products/Perkin-Elmer, Waltham, Mass.), 5 mM MgCl2, and, as substrate, 40 μM serine analogue of the PKC-ε pseudosubstrate (BioSource/Invitrogen, Carlsbad, Calif.). After incubation, ^32P-labeled substrate was trapped on P-81 filter paper and counted. This assay reflects the specific activity of a constant amount of aPKC (even in Het-MλKO mice) that is immunoprecipitated by supplier-prescribed amounts of antiserum (Farese et al., J. Clin. Invest. 117:2289-2301, 2007; Beeson et al., Diabetes 52:1926-1934, 2003).
Wild type mice were treated with 1.5 mg/kg ICAPP subcutaneously and after 2-30 hours, the mice were treated with 1 U/kg insulin 15 minutes before euthanasia. aPKC activity was determined as described in Example 1.

[1] = test system: aPKC immunoprecipitated from tissues previously stimulated by insulin; assay: fully-activated aPKC immunoprecipitated from insulin-stimulated tissues; assay type: biochemical
Method: aPKCι Assays: aPKC enzyme activity was measured as previously described (Standaert et al., J. Biol. Chem. 279:24929-24934, 2004; Sajan et al., J. Lipid Res. 50:1133-1145, 2009; Sajan et al., Diabetologia 52:1197-1207, 2009; Farese et al., J. Clin. Invest. 117:2289-2301, 2007). […] After incubation, ^32P-labeled substrate was trapped on P-81 filter paper and counted. […]

Het-MλKO mice = assay: clinical parameters in Het-MλKO mice (model of obesity/metabolic syndrome/T2DM); assay type: in vivo, mouse; settings: ICAP-treated Mλ-Het KO mice (n = 12), 0.5 mg/kg body weight/day x 8 days s.c., mean ± SEM

Structure (SMILES): NC(=O)c1ncn([C@@H]2C[C@H](COP(=O)(O)O)[C@@H](O)[C@H]2O)c1N [ICAPP, 1H-imidazole-4-carboxamide, 5-amino-1-[2,3-dihydroxy-4-[(phosphonooxy)methyl]cyclopentyl]-[1R-(1α,2β,3β,4α)]]
- inhibition of PKC-ζ (PKC-ζ): not inhibited
- insulin-stimulated aPKC activity in adipose tissue (aPKC): not in either muscle or adipose tissues
- insulin-stimulated aPKC activity in liver (aPKC): diminished
- insulin-stimulated aPKC activity in muscle (aPKC): not in either muscle or adipose tissues

Structure (SMILES): O=C([O-])CC([S][Au])C(=O)[O-] (stereo not drawn) [ATM, aurothiomalate, reference compound]
- inhibition of fully-activated aPKC immunoprecipitated from tissues previously stimulated by insulin [1]: did not inhibit

Structure (SMILES): NC(=O)c1ncn([C@@H]2C[C@H](CO)[C@@H](O)[C@H]2O)c1N [ICAP, 1H-imidazole-4-carboxamide 5-amino-1-[2,3-dihydroxy-4-[hydroxymethyl]cyclopentyl]-[1R-(1α,2β,3β,4α)]]
- 10-min-post-insulin serum glucose (Het-MλKO mice): 91 ± 8 mg/dL
